Experiments:
Assay type in all cases: biochemical
human JAK3 = molecular target: T1, human JAK3 (Homo sapiens, UniProt P52333); assay: JAK kinase assay (ELISA or Alphascreen), Jak3; details: standard conditions, read-out: Jak3 inhibition of enzyme activity
T1 construct: The kinase domain of human JAK3 was amplified from U937mRNA; His tag (pFastBac HTb vector; nickel chelate purification) (N); made in house; host or cells: baculovirus; Sf9 for virus, High Five insect cells for production
From the text: The kinase domain of human JAK3 was amplified from U937mRNA using the polymerase chain reaction with the following primers: […]
JAK3 PCR products were cloned into the pFastBac HTb expression vector (Gibco) via the Xho I and Kpn I sites. The JAK3 plasmid was then transformed into competent DH10Bac cells (Gibco), and the recombinant baculovirus produced prepared for transfection into Sf9 insect cells.
(§1) Baculovirus preparations from each of the JAK family members were infected into five litres of High Five cells (Invitrogen) grown in High Five serum free medium (Invitrogen) to a cell density of approximately 1-2×10^6 cells/ml. Cells are infected with virus at a MOI of 0.8-3.0. Cells were harvested and lysed. JAK kinase domains were purified by affinity chromatography on a Probond (Invitrogen) nickel chelate affinity column.
(§2) Kinase assays were performed either in a 96 well capture-based ELISA assay or in 384 well Optiplates (Packard) using an Alphascreen Protein Tyrosine Kinase kit. In either case using approximately 15 μg of affinity purified PTK domain in the presence of 50 mM HEPES, pH 7.5, 10 mM MgCl2 150 mM NaCl and 10 μM-1 mM ATP. The biotinylated substrate biotin-EGPWLEEEEEAYGWMDF-NH2 (final concentration 5 μM) was used as substrate. In the ELISA assay tyrosine phosphorylation was quantitated following transfer to an avidin coated ELISA plate using peroxidase-linked anti-phospho-tyrosine antibody PY20. In the Alphascreen assay, Alphascreen phosphotyrosine acceptor beads followed by streptavidin donor beads were added under subdued light. The ELISA plates were read on a BMG Fluorostar, the Alphascreen plates were read on a Packard Fusion Alpha. Inhibitors were added to the assays fifteen minutes prior to the addition of ATP. Inhibitors were added in aqueous DMSO, with DMSO concentrations never exceeding 1%.

human JAK2 = molecular target: T2, human JAK2 (Homo sapiens, UniProt O60674); assay: JAK kinase assay (ELISA or Alphascreen), Jak2; details: standard conditions, read-out: Jak2 inhibition of enzyme activity
T2 construct: The kinase domain of human JAK2 was amplified from U937mRNA; His tag (pFastBac HTc vector; nickel chelate purification) (N); made in house; host or cells: baculovirus; Sf9 for virus, High Five insect cells for production
T2 sequence (O60674 849-1124 limits assumed): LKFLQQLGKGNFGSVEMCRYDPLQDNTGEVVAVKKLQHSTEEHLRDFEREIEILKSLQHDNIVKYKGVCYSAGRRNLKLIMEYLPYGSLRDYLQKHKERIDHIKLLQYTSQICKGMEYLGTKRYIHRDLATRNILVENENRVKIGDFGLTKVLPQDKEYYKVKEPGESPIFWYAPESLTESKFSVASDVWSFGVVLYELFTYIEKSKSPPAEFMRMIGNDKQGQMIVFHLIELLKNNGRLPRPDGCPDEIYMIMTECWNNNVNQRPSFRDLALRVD
From the text: The kinase domain of human JAK2 was amplified from U937mRNA using the polymerase chain reaction with the following primers: […]
JAK2 PCR products were cloned into the pFastBac HTc expression vector (Gibco) via the Sal I and Not I sites. The JAK2 plasmid was then transformed into competent DHL10Bac cells (Gibco), and the recombinant baculovirus produced prepared for transfection into Sf9 insect cells.
as §1, §2

kdr = kdr (Homo sapiens, UniProt P35968); assay: Kinase assay (ELISA or Alphascreen), kdr; details: standard conditions, read-out: kdr inhibition of enzyme activity
kdr, sequence (P35968 834-1162 limits assumed, species assumed): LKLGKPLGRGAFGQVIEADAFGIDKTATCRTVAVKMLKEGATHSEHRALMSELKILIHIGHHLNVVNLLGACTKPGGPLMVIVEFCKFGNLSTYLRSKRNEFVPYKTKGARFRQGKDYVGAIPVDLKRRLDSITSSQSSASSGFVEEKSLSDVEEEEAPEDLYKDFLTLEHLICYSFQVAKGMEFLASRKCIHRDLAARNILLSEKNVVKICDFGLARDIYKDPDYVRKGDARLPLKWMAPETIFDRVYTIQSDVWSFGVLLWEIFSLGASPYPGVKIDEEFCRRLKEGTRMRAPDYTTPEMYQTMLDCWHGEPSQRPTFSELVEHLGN
Description: as §2

T1 sequence (P52333 822-1111 limits assumed): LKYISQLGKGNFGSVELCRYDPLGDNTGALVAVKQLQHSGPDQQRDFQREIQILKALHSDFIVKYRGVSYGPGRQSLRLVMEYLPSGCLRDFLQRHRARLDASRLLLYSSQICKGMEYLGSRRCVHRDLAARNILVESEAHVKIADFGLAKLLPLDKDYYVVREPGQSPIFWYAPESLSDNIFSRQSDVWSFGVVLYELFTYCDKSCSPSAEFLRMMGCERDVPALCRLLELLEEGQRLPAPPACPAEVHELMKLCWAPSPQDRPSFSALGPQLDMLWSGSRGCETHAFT

Compound | inhibition at 20 µM (human JAK3) [%] | inhibition at 20 µM (human JAK2) [%] | inhibition at 20 µM (kdr) [%]
C[C@H](Nc1cncc(-n2cnc3cc(NS(=O)(=O)c4ccccc4)ccc32)n1)c1ccccc1 | ≥ 50 | ≥ 50 | 
CC(Nc1cncc(-n2cnc3ccccc32)n1)c1cccc(Cl)c1 (stereo not drawn) | < 50 | < 50 | 
CC(Nc1cncc(-n2cnc3ccccc32)n1)c1ccc(-n2ccnc2)cc1 (stereo not drawn) | < 50 | < 50 | 
CC(Nc1cncc(-n2cnc3ccccc32)n1)c1ccncc1 (stereo not drawn) | < 50 | < 50 | ≥ 50
c1ccc2c(c1)ncn2-c1cncc(-c2ccncc2)n1 | < 50 | ≥ 50 | 
c1cncc(-c2cncc(-n3cnc4ccccc43)n2)c1 | < 50 | ≥ 50 | 
O=S(=O)(Nc1ccc(-c2cncc(-n3cnc4ccccc43)n2)cc1)c1ccccc1 | ≥ 50 | ≥ 50 | 
CCCC(Nc1cncc(-n2cnc3ccccc32)n1)c1ccccc1 (stereo not drawn) | < 50 | ≥ 50 | 
COc1cccc([C@H](C)Nc2cncc(-n3cnc4ccccc43)n2)c1 | < 50 | < 50 | ≥ 50
CC(Nc1cncc(-n2cnc3ccc(CO)cc32)n1)c1ccc(F)cc1 (stereo not drawn) | < 50 | ≥ 50 | ≥ 50
CC(Nc1cncc(-n2cnc3cc(CO)ccc32)n1)c1ccc(F)cc1 (stereo not drawn) | < 50 | < 50 | ≥ 50
CC(Nc1cncc(-n2cnc3ccc(CN4CCN(C)CC4)cc32)n1)c1ccc(F)cc1 (stereo not drawn) | < 50 | < 50 | 
CCN(CC)Cc1ccc2ncn(-c3cncc(NC(C)c4ccc(F)cc4)n3)c2c1 (stereo not drawn) | < 50 | < 50 | 
CNCCN(C)Cc1ccc2ncn(-c3cncc(NC(C)c4ccc(F)cc4)n3)c2c1 (stereo not drawn) | < 50 | < 50 | ≥ 50
CC(Nc1cncc(-n2cnc3cc(CNCCN(C)C)ccc32)n1)c1ccc(F)cc1 (stereo not drawn) | < 50 | < 50 | 
CC(Nc1cncc(-n2cnc3ccncc32)n1)c1ccc(F)cc1 (stereo not drawn) | < 50 | < 50 | 
C[C@H](Nc1cncc(-n2cnc3cc(CO)ccc32)n1)c1ccc(F)cc1 | < 50 | < 50 | 
C[C@H](Nc1cncc(-n2cnc3ccc(CN4CCCCC4)cc32)n1)c1ccc(F)cc1 | ≥ 50 | ≥ 50 | 
C[C@H](Nc1cncc(-n2cnc3ccc(CN4CCC(O)CC4)cc32)n1)c1ccc(F)cc1 | < 50 | ≥ 50 | 
C[C@H](Nc1cncc(-n2cnc3ccc(CN4CCN(CCN)CC4)cc32)n1)c1ccc(F)cc1 | < 50 | < 50 | 
CC(Nc1cncc(-n2cnc3ccc(C#N)cc32)n1)c1cccc2ccccc12 (stereo not drawn) | < 50 | < 50 | 

Compound | inhibition at 20 µM (human JAK3) [%] | inhibition at 20 µM (human JAK2) [%] | inhibition at 20 µM (kdr) [%]
C[C@H](Nc1cncc(-n2cnc3ccc(-c4nn[nH]n4)cc32)n1)c1ccc(F)cc1 | < 50 | ≥ 50 | 
C[C@H](Nc1cncc(-n2cnc3cc(C#N)ccc32)n1)c1ccccc1 | ≥ 50 | ≥ 50 | 
C[C@H](Nc1cncc(-n2cnc3ccc(C#N)cc32)n1)c1ccccc1 | ≥ 50 | ≥ 50 | 
C[C@H](Nc1cncc(-n2ncc3ccccc32)n1)c1ccc(F)cc1 | < 50 | < 50 | 
C[C@H](Nc1cncc(-n2cc3ccccc3n2)n1)c1ccc(F)cc1 | < 50 | < 50 | 
CC(Nc1cncc(-n2cnc3ccc(C#N)cc32)n1)c1ccc(F)c(F)c1 (stereo not drawn) | ≥ 50 | ≥ 50 | 
CC(Nc1cncc(-n2cnc3cc(C#N)ccc32)n1)c1ccc(F)c(F)c1 (stereo not drawn) | ≥ 50 | ≥ 50 | 
CC(Nc1cncc(-n2cnc3cc(C#N)ccc32)n1)c1cccc(F)c1 (stereo not drawn) | ≥ 50 | ≥ 50 | 
N#Cc1ccc2ncn(-c3cncc(N[C@H]4CCCc5ccccc54)n3)c2c1 | < 50 | < 50 | 
CC(Nc1cncc(-n2cnc3cc(C#N)ccc32)n1)c1cc(F)cc(F)c1 (stereo not drawn) | < 50 | ≥ 50 | 
CC(Nc1cncc(-n2cnc3ccc(C#N)cc32)n1)c1cccc(C(F)(F)F)c1 (stereo not drawn) | < 50 | ≥ 50 | 
CC(Nc1cncc(-n2cnc3cc(C#N)ccc32)n1)c1cccc(C(F)(F)F)c1 (stereo not drawn) | < 50 | < 50 | 
CC(Nc1cncc(-n2cnc3ccc(C#N)cc32)n1)c1ccc(F)c(Cl)c1 (stereo not drawn) | ≥ 50 | ≥ 50 | 
CC(Nc1cncc(-n2cnc3ccc(C#N)cc32)n1)c1cccc(OC(F)(F)F)c1 (stereo not drawn) | < 50 | < 50 | 
CC(Nc1cncc(-n2cnc3cc(C#N)ccc32)n1)c1cccc(OC(F)(F)F)c1 (stereo not drawn) | < 50 | < 50 | 
N#Cc1ccc2ncn(-c3cncc(NC4Cc5ccccc5C4)n3)c2c1 | < 50 | < 50 | 
N#Cc1ccc2c(c1)ncn2-c1cncc(NC2Cc3ccccc3C2)n1 | < 50 | < 50 | 
N#Cc1ccc2ncn(-c3cncc(N4CCc5ccccc5C4)n3)c2c1 | < 50 | < 50 | 
N#Cc1ccc2c(c1)ncn2-c1cncc(N2CCc3ccccc3C2)n1 | < 50 | < 50 | 
CC[C@H](Nc1cncc(-n2cnc3ccc(C#N)cc32)n1)c1ccccc1 | ≥ 50 | ≥ 50 | 
C[C@H](Nc1cncc(-n2cnc3cccnc32)n1)c1ccccc1 | < 50 | < 50 | 

Compound | inhibition at 20 µM (human JAK3) [%] | inhibition at 20 µM (human JAK2) [%] | inhibition at 20 µM (kdr) [%]
C[C@H](Nc1cncc(-n2cnc3ncccc32)n1)c1ccccc1 | < 50 | < 50 | 
C[C@H](Nc1cncc(-n2cnc3cccnc32)n1)c1ccc(F)cc1 | < 50 | < 50 | 
C[C@H](Nc1cncc(-n2cnc3ncccc32)n1)c1ccc(F)cc1 | < 50 | < 50 | 
Cc1ccc([C@H](C)Nc2cncc(-n3cnc4cc(C#N)ccc43)n2)cc1 | < 50 | ≥ 50 | 
C[C@@H](c1ccccc1)N(C)c1cncc(-n2cnc3ccc(C#N)cc32)n1 | ≥ 50 | ≥ 50 | ≥ 50
C[C@@H](c1ccccc1)N(C)c1cncc(-n2cnc3cc(C#N)ccc32)n1 | < 50 | < 50 | 
Cc1ncc(-n2cnc3cc(C#N)ccc32)nc1N[C@@H](C)c1ccccc1 | ≥ 50 | ≥ 50 | ≥ 50
Cc1ncc(-n2cnc3ccc(C#N)cc32)nc1N[C@@H](C)c1ccccc1 | ≥ 50 | ≥ 50 | 
N#Cc1ccc2ncn(-c3cncc(Cl)n3)c2c1 | < 50 | < 50 | 
CC1CC(Nc2cncc(-n3cnc4ccc(C#N)cc43)n2)c2ccccc21 (stereo not drawn) | < 50 | < 50 | 
COc1cccc2c1CCC2Nc1cncc(-n2cnc3ccc(C#N)cc32)n1 (stereo not drawn) | ≥ 50 | < 50 | 
COc1cccc2c1CCC2Nc1cncc(-n2cnc3cc(C#N)ccc32)n1 (stereo not drawn) | < 50 | < 50 | 
COc1ccc2c(c1)CCC2Nc1cncc(-n2cnc3cc(C#N)ccc32)n1 (stereo not drawn) | < 50 | < 50 | 
N#Cc1ccc2c(c1)ncn2-c1cncc(NC2CCc3ccc(O)cc32)n1 (stereo not drawn) | < 50 | < 50 | 
N#Cc1ccc2ncn(-c3cncc(NC4CCc5cc(F)ccc54)n3)c2c1 (stereo not drawn) | < 50 | < 50 | 
N#Cc1ccc2ncn(-c3cncc(NC4CCc5cc(Br)ccc54)n3)c2c1 (stereo not drawn) | ≥ 50 | < 50 | 
N#Cc1ccc2c(c1)ncn2-c1cncc(NC2CCc3cc(Br)ccc32)n1 (stereo not drawn) | < 50 | < 50 | 
CC(Nc1cncc(-n2cnc3ccc(C#N)cc32)n1)c1ccccn1 (stereo not drawn) | ≥ 50 | ≥ 50 | 
CC(Nc1cncc(-n2cnc3cc(C#N)ccc32)n1)c1ccccn1 (stereo not drawn) | < 50 | ≥ 50 | 

From US7737143B2, “Substituted pyrazines as kinase inhibitors” (YM Biosciences Australia Pty Ltd, priority 2003, dated 2010)
